Source: ChEMBL document CHEMBL1201862, “PubChem BioAssay data set” (2004)
Active and inactive are the calls of the source.

Columns and labels:
Type in all cases: functional
[1] = microbe, parasite or virus in culture; settings: Mycobacterium tuberculosis
[2] = Vero cell cytotoxicity, dose response, cytotoxicity control for M. tuberculosis growth inhibitor project, Vero cells, purified and synthesized compounds, set 5 (AID 504909); settings: Mycobacterium tuberculosis
[3] = A Cell Based Secondary Assay to Explore Cytotoxicity in THP-1 Cells of Compounds that Modulate Mycobacterium tuberculosis in Media Containing Glycerol versus Media without Glycerol (2).
[4] = Vero cell cytotoxicity, cytotoxicity control for M. tuberculosis inhibitor project, purified and synthesized samples, set 3 (AID 504684)
[5] = HepG2 cell cytotoxicity, cytotoxicity control, set 4 (AID 504910); settings: Mycobacterium tuberculosis
[6] = THP-1 cell cytotoxicity, cytotoxicity control, set 4 (AID 504911); settings: Mycobacterium tuberculosis
[7] = A Cell Based Secondary Assay to Explore Cytotoxicity in HepG2 Cells of Compounds that Modulate Mycobacterium tuberculosis in Media Containing Glycerol versus Media without Glycerol (2).
[8] = HepG2 cell cytotoxicity, dose response, cytotoxicity control, set 3 (AID 504853); settings: Mycobacterium tuberculosis
[9] = THP-1 cell cytotoxicity, dose response, cytotoxicity control, set 3 (AID 504852); settings: Mycobacterium tuberculosis
[10] = Vero cell cytotoxicity, dose response, cytotoxicity control for M. tuberculosis growth inhibitor project, Vero cells, purified and synthesized compounds, set 4 (AID 504854); settings: Mycobacterium tuberculosis
[11] = molecular target: Tyrosine-protein kinase Lck (Homo sapiens, UniProt P06239);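 further: lck was assayed as one member of a kinase panel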
Tyrosine-protein kinase Lck, sequence (P06239 whole entry): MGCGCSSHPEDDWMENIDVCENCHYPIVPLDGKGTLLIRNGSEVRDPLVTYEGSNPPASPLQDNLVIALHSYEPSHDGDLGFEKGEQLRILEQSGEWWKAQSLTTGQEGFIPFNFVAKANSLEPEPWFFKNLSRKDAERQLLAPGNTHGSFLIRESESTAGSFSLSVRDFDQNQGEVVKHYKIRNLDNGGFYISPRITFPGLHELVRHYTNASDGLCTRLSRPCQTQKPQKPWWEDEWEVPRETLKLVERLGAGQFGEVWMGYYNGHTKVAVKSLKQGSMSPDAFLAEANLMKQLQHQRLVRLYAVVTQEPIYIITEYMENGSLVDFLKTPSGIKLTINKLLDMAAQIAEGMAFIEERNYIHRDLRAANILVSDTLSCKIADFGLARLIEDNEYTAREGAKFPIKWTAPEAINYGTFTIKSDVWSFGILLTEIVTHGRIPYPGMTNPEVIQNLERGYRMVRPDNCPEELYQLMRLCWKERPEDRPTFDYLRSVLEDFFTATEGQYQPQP

[12] = molecular target: Mast/stem cell growth factor receptor Kit (Homo sapiens, UniProt P10721);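 further: KIT entry within a kinase panel assay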
Mast/stem cell growth factor receptor Kit, sequence (P10721 whole entry): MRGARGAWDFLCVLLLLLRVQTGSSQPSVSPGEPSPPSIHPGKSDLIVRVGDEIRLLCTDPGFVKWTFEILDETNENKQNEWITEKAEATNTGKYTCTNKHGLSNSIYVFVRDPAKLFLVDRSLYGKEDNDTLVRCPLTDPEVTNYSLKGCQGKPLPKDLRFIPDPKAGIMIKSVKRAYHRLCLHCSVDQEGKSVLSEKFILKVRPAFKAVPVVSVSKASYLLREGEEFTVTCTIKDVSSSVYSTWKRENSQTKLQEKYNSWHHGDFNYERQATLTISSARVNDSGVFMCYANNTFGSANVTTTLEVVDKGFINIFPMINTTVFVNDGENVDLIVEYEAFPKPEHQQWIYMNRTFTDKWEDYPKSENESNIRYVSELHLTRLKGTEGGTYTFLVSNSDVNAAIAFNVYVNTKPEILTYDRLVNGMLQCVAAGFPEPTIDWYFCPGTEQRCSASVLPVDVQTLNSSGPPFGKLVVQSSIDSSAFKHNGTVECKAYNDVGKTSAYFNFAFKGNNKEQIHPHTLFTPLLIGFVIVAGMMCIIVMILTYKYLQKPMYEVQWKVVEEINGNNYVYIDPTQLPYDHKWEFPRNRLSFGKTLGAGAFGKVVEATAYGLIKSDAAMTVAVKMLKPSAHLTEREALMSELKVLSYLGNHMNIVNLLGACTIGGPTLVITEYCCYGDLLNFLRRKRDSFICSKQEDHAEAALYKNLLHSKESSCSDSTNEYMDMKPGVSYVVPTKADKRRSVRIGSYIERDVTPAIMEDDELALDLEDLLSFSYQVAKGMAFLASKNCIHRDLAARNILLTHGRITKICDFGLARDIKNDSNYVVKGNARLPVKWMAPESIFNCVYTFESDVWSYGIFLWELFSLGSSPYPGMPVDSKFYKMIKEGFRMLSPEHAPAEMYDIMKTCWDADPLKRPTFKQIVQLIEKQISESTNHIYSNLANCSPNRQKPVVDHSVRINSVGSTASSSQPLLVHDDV

[13] = molecular target: Tyrosine-protein kinase Lyn (Homo sapiens, UniProt P07948);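 further: lyn as one member of a kinase panel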
[14] = molecular target: Tyrosine-protein kinase Blk (Homo sapiens, UniProt P51451);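 further: obtained as one member of a kinome-wide kinase assay panel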
Tyrosine-protein kinase Blk, sequence (P51451 whole entry): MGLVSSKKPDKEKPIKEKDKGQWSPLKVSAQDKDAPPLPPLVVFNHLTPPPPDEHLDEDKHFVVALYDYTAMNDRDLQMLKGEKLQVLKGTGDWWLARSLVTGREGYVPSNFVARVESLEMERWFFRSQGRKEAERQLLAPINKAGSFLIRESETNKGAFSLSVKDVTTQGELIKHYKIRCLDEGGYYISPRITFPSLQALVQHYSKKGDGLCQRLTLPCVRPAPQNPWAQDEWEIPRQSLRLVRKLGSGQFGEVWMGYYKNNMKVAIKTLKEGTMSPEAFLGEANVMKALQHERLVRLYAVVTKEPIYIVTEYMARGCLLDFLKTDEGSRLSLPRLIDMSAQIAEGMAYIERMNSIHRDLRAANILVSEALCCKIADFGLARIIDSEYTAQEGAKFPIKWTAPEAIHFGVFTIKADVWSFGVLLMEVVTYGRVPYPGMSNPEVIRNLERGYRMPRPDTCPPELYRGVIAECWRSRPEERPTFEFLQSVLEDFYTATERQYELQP

[15] = molecular target: Proto-oncogene tyrosine-protein kinase Src (Homo sapiens, UniProt P12931);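 further: SRC entry within a kinome-wide kinase profiling panel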
Proto-oncogene tyrosine-protein kinase Src, sequence (P12931 2-536 limits assumed): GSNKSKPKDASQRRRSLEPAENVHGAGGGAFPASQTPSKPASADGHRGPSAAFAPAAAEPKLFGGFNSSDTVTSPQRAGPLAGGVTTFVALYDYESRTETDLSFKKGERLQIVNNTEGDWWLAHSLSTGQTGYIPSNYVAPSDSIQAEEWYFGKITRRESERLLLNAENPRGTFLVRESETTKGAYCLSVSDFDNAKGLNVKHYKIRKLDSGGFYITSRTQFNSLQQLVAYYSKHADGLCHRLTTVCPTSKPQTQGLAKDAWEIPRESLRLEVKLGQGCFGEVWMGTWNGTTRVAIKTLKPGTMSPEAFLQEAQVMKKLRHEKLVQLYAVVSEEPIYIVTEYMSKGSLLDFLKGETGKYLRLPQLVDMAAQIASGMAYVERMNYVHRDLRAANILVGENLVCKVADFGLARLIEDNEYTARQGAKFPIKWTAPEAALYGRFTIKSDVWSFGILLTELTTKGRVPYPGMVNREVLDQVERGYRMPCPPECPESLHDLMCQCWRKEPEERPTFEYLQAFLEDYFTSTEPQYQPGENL

[16] = molecular target: Receptor-type tyrosine-protein kinase FLT3 (Homo sapiens, UniProt P36888);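 further: FLT3 was tested as one member of a kinome-wide kinase panel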
[17] = molecular target: Tyrosine-protein kinase ABL1 (Homo sapiens, UniProt P00519)
[18] = molecular target: Vascular endothelial growth factor receptor 2 (Homo sapiens, UniProt P35968)
[19] = molecular target: Vascular endothelial growth factor receptor 3 (Homo sapiens, UniProt P35916);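 further: value from a kinome-wide profiling panel, with FLT4 as the panel member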
[20] = molecular target: Tyrosine-protein kinase Fyn (Homo sapiens, UniProt P06241)
Tyrosine-protein kinase Fyn, sequence (P06241 whole entry): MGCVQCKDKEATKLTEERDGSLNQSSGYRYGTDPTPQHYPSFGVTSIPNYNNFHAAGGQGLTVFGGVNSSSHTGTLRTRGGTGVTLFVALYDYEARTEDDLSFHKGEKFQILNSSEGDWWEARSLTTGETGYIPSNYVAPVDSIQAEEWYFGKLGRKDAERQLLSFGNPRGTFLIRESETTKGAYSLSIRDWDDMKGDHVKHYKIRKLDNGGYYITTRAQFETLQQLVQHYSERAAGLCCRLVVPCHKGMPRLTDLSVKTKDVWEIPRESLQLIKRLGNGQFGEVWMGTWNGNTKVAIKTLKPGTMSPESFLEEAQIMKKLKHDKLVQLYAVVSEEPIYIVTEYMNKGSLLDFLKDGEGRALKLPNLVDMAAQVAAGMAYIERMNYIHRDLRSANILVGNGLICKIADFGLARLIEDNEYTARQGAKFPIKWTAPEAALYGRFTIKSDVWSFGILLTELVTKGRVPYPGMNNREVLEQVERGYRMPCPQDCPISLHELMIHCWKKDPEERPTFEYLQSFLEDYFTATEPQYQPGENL

[21] = molecular target: Vascular endothelial growth factor receptor 1 (Homo sapiens, UniProt P17948);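 further: measured within a kinome-wide profiling panel, FLT1 as the panel member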
[22] = molecular target: Macrophage colony-stimulating factor 1 receptor (Homo sapiens, UniProt P07333);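 further: value comes from the Navigating the Kinome screening panel, CSF1R member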
Macrophage colony-stimulating factor 1 receptor, sequence (P07333 whole entry): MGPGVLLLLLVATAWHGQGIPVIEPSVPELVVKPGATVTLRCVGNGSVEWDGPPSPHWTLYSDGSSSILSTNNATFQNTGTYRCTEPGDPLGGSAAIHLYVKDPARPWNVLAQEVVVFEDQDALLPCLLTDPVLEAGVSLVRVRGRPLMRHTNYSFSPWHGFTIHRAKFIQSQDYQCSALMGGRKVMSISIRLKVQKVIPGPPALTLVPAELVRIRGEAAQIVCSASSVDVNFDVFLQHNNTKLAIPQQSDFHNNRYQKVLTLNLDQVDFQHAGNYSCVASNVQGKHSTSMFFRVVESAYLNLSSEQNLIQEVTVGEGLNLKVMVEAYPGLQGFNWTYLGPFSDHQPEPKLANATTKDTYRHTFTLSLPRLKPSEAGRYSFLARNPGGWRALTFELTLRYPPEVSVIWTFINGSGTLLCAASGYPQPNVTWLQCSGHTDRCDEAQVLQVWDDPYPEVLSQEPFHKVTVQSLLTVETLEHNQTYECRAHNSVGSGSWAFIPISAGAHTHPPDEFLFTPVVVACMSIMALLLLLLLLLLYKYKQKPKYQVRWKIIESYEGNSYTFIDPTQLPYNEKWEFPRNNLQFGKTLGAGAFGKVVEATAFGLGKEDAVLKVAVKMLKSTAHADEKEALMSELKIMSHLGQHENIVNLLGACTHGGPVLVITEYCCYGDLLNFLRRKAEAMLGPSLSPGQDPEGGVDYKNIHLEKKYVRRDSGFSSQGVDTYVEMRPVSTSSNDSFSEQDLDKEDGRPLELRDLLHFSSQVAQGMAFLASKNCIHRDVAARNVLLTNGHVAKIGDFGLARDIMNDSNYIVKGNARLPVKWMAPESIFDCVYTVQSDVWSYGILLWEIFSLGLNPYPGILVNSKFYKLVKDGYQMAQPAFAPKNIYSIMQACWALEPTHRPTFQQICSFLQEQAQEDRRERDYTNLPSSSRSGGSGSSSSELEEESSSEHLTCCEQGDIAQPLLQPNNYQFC

[23] = molecular target: Death-associated protein kinase 3 (Homo sapiens, UniProt O43293);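 further: measured as one member of a kinome-wide profiling panel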
Death-associated protein kinase 3, sequence (O43293 whole entry, canonical isoform): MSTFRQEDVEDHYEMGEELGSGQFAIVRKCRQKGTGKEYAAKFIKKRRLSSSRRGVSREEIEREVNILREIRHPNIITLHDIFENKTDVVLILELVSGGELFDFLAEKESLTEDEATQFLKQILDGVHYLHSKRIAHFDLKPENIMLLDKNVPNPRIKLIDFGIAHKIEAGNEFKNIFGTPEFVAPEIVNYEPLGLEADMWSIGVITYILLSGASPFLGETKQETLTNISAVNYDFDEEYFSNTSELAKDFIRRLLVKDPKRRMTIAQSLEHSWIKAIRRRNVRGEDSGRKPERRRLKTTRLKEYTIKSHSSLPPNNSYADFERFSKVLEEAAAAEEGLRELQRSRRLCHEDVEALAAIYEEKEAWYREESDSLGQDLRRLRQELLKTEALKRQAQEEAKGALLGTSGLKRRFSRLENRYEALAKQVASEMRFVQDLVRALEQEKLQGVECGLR

[24] = molecular target: Casein kinase I isoform alpha (Homo sapiens, UniProt P48729)
[25] = molecular target: LIM domain kinase 1 (Homo sapiens, UniProt P53667); test: Navigating the Kinome. Panel member name: LIMK1
[26] = molecular target: Activated CDC42 kinase 1 (Homo sapiens, UniProt Q07912); test: Navigating the Kinome. Panel member name: ACK1
[27] = molecular target: Dual specificity tyrosine-phosphorylation-regulated kinase 1B (Homo sapiens, UniProt Q9Y463); test: Navigating the Kinome. Panel member name: DYRK1B
[28] = molecular target: Rho-associated protein kinase 1 (Homo sapiens, UniProt Q13464);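 further: measured within a broad kinome-wide panel profiling many kinases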
[29] = molecular target: Dual specificity protein kinase CLK4 (Homo sapiens, UniProt Q9HAZ1)
Dual specificity protein kinase CLK4, sequence (Q9HAZ1 whole entry): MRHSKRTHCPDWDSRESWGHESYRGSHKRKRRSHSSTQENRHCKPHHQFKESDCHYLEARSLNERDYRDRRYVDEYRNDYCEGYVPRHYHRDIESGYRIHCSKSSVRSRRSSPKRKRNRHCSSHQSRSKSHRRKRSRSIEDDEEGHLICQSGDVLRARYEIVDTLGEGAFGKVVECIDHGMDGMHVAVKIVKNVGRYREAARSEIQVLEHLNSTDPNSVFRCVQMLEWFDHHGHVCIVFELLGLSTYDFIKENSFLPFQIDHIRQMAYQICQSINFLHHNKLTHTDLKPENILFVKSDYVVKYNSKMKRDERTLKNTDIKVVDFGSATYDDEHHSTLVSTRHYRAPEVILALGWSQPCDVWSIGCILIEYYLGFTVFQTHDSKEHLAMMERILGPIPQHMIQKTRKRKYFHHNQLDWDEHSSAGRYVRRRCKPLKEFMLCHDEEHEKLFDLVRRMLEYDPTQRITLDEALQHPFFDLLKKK

[30] = molecular target: T1, Neuropeptides B/W receptor type 1 (Homo sapiens, UniProt P48145); test: GPR7 antagonist potency, late-stage follow-up, cell-based, fluorescence, dose response, set 5 (AID 588566)
T1 sequence (P48145 whole entry): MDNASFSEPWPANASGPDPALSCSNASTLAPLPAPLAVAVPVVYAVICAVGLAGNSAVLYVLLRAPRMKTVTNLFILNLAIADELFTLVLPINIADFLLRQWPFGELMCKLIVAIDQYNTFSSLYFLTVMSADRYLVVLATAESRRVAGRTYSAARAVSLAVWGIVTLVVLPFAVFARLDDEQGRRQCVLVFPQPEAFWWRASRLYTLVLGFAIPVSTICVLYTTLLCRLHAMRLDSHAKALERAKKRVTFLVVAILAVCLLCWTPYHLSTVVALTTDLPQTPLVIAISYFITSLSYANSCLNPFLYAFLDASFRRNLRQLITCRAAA

[31] = molecular target: Melanin-concentrating hormone receptor 1 (Homo sapiens, UniProt Q99705); test: Late-stage fluorescence-based counterscreen for antagonists of the G-protein coupled receptor 7 (GPR7): cell-based dose response assay to identify antagonists of the melanin-concentrating hormone receptor 1 (MCHR1) Set 5.

CCOc1ccc(-c2cc(C)[n+](CCc3ccc(OC)c(OC)c3)c(-c3ccc(OCC)cc3)c2)cc1.[O-][Cl+3]([O-])([O-])[O-]
CC50 [1]: > 40 µM (active) | CC50 [2]: 19.7 µM (active) | CC50 [3]: 2.28 µM (active) | CC50 [4]: 18.2 µM (active) | CC50 [5]: 11.9 µM (active) | CC50 [6]: 1.3 µM (active) | CC50 [7]: 9.14 µM (active) | CC50 [8]: 13.1 µM (active) | CC50 [9]: 1.7 µM (active) | CC50 [10]: 21 µM (active)

Cc1ccc(F)c(NC(=O)Nc2ccc(-c3cccc4[nH]nc(N)c34)c(F)c2)c1
Ki [11]: 0.501 µM (active) | Ki [12]: 0.002 µM (active) | Ki [13]: 0.316 µM (active) | Ki [14]: 0.251 µM (active) | Ki [15]: 0.501 µM (active) | Ki [16]: 0.00316 µM (active) | Ki [17]: > 0.631 µM (inactive) | Ki [18]: 0.0126 µM (active) | Ki [19]: 0.00398 µM (active) | Ki [20]: 0.158 µM (active) | Ki [21]: 0.001 µM (active) | Ki [22]: 0.00316 µM (active)

Cn1c(N)nc2sc(C(N)=O)cc21
Ki [23]: 10 µM (active) | Ki [24]: 12.6 µM (active) | Ki [25]: 79.4 µM (active) | Ki [26]: 79.4 µM (active) | Ki [27]: 79.4 µM (active) | Ki [28]: 39.8 µM (active) | Ki [29]: 25.1 µM (active)

O=c1c(Oc2ccc(Cl)c(Cl)c2)c(Cl)cnn1Cc1cccc2ccccc12
IC50 [30]: > 20 µM (inactive) | IC50 [31]: > 20 µM (inactive)
